Structures can show the parent of a compound that is named as a salt.
What was measured:
Format in all cases: biochemical
MASP-2 (CCP1-CCP2-SP) = target: T1, MASP-2 (CCP1-CCP2-SP) (Homo sapiens, UniProt O00187); experiment: Enzymatic assay for MASP-2 inhibitory activity (fluorogenic substrate); conditions: room temperature, 20 mM Hepes pH 7.4, 20 min
T1 construct: 15 μL of Enzyme MASP-2 (CCP1-CCP2-SP) in Assay Buffer
Outline: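 Human MASP-2 CCP1-CCP2-SP construct with a C2-cleavage-site fluorogenic substrate in 20 mM HEPES pH 7.4, 140 mM NaCl, 0.1% Tween 20, 20 min at room temperature before acetic acid stop. Activity normalised to DMSO and no-enzyme controls; IC50 taken as equivalent to Ki under linear conditions.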

human a-thrombin = target: T2, human a-thrombin (Homo sapiens, UniProt P00734); experiment: Enzymatic assay for thrombin (fluorogenic peptide substrate Boc-VPR-AMC); conditions: room temperature, 20 mM Hepes pH 7.4, 20 min
T2 construct: enzyme (human a-thrombin (BioPharm® Lab.)); purchased BioPharm Lab
Outline: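 Human α-thrombin was incubated with serially diluted compound and fluorogenic substrate Boc-VPR-AMC in 20 mM Hepes pH 7.4, 140 mM NaCl, 0.1% Tween 20 at room temperature. The reaction was stopped after 20 min with 0.1 M acetic acid and fluorescence read. % activity was normalized to DMSO and no-enzyme controls, and IC50 was taken as equivalent to Ki.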

[1] = tested on: Lectin Pathway Activation (LPA) in human serum; experiment: Lectin pathway activation (LPA) assay in human serum, C4 deposition on mannan-coated plate; conditions: 1% pooled human serum, 55 minutes, room temperature
Description: A Microtiter ELISA plate (Nunc-Maxi Sorp; Sigma-Aldrich®, USA) was coated with mannan sourced from Saccharomyces cerevisiae (Sigma-Aldrich®, USA) in a coating buffer comprising 33.3 mM Na2CO3 and 166.67 mM NaHCO3. The plates were incubated at room temperature overnight. Subsequently, the plates were blocked with a 5% bovine serum albumin solution (Sigma-Aldrich®, USA) prepared in PBST for 2 hours at room temperature with agitation. Varying concentrations of MASP-2 inhibitors were dispensed onto the empty plate.
To perform the assay, pooled human serum was diluted to 1% in a solution of 20 mM HEPES (pH=7.4), 140 mM NaCl, and 1 mM MgCl2. Then, 40 μl of the diluted human serum was dispensed into each well of the Microtiter ELISA plate and incubated for 55 minutes at room temperature. The C4 deposition on the mannan-coated surface was stopped using an EDTA stop solution (20 mM HEPES, pH=7.4, 140 mM NaCl, and 150 mM EDTA). Subsequently, rabbit anti-Human C4c antibody (Agilent Technologies, USA) prepared in PBST was added, and the plates were incubated at room temperature for 30 minutes with agitation, then washed with PBST, and Goat anti-rabbit IgG(H+L) HRP-conjugated (Southern Biotech®, USA) was added. The plates were again incubated at room temperature for 30 minutes with agitation, and then were washed with PBST. Following this, the Amplex® UltraRed® (Thermo Fischer Sci, USA) substrate solution was added for 16 minutes, followed by the addition of the Amplex® UltraRed® stop solution. The plates' fluorescence was measured using an i3× microplate reader (Molecular Devices, USA) with excitation at 550 nm and emission at 580 nm. The raw data generated from the plate reader was exported to GraphPad Prism® (version 10.0.3), and the non-linear regression curve was generated using the 4-parameter logistic fit equation. All data are reported as pIC50 with a 95% confidence interval.

T1 sequence (O00187 287-686 limits assumed): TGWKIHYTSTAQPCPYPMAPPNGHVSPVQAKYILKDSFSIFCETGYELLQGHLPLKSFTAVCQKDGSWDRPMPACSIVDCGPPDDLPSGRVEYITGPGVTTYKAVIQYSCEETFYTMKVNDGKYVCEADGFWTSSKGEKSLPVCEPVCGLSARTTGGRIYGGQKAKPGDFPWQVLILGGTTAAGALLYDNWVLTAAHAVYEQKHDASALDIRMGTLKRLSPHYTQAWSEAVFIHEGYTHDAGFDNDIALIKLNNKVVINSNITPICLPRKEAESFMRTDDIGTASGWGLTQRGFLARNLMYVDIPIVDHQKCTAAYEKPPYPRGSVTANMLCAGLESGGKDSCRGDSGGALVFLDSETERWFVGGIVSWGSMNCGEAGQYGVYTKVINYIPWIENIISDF

| Compound | Ki (MASP-2 (CCP1-CCP2-SP)) | Ki (human a-thrombin) | IC50 [1] |
| --- | --- | --- | --- |
| COc1ccc(CNc2cnc3n(c2=O)[C@H](C(=O)NCc2ccc(N)nc2C)CC3)cc1F [Compound 46, (S)-N-((6-amino-2-methylpyridin-3-yl)methyl)-3-((3-fluoro-4-methoxybenzyl)amino)-4-oxo-4,6,7,8-tetrahydropyrrolo[1,2-a]pyrimidine-6-carboxamide, di-trifluoroacetate] | < 500 nM | 500 to 2500 nM | < 500 nM |
| Cc1cc(C)cc(CNc2cnc3n(c2=O)[C@H](C(=O)NCc2cnc4c(c2)CNC4)CC3)c1 [Compound 22, (S)—N-((6,7-dihydro-5H-pyrrolo[3,4-b]pyridin-3-yl)methyl)-3-((3,5-dimethylbenzyl)amino)-4-oxo-4,6,7,8-tetrahydropyrrolo[1,2-a]pyrimidine-6-carboxamide, trifluoroacetate] | < 500 nM | > 25000 nM | < 500 nM |
| Cc1cc(C)cc(CNc2cnc3n(c2=O)[C@H](C(=O)NCc2ccc4cncn4c2)CC3)c1 [Compound 20, (S)-3-((3,5-dimethylbenzyl)amino)-N-(imidazo[1,5-a]pyridin-6-ylmethyl)-4-oxo-4,6,7,8-tetrahydropyrrolo[1,2-a]pyrimidine-6-carboxamide] | < 500 nM | > 25000 nM | < 500 nM |
| Cc1cc(C)cc(CNc2cnc3n(c2=O)[C@H](C(=O)NCc2cnc4[nH]cc(Cl)c4c2)CC3)c1 [Compound 18, (S)—N-((3-chloro-1H-pyrrolo[2,3-b]pyridin-5-yl)methyl)-3-((3,5-dimethylbenzyl)amino)-4-oxo-4,6,7,8-tetrahydropyrrolo[1,2-a]pyrimidine-6-carboxamide, trifluoracetate] | < 500 nM | 2500 to 10000 nM | < 500 nM |
| Cc1cc(C)cc(CNc2cnc3n(c2=O)[C@H](C(=O)NCc2cc(Cl)ccc2-n2cnnn2)CC3)c1 [Compound 5, (S)—N-(5-chloro-2-(1H-tetrazol-1-yl)benzyl)-3-((3,5-dimethylbenzyl)amino)-4-oxo-4,6,7,8-tetrahydropyrrolo[1,2-a]pyrimidine-6-carboxamide trifluoroacetic acid] | < 500 nM | < 500 nM |  |
| Cc1nc(N)ccc1CNC(=O)[C@@H]1CCc2ncc(NCc3cc(F)cc(C(F)(F)F)c3)c(=O)n21 [Compound 47, (S)-N-((6-amino-2-methylpyridin-3-yl)methyl)-3-((3-fluoro-5-(trifluoromethyl)benzyl)amino)-4-oxo-4,6,7,8-tetrahydro-pyrrolo[1,2-a]pyrimidine-6-carboxamide, di-trifluoroacetate] | < 500 nM | 500 to 2500 nM |  |
| Cc1nc(N)ccc1CNC(=O)[C@@H]1CCc2ncc(NCc3cccc(CC#N)c3)c(=O)n21 [Compound 80, (S)-N-((6-amino-2-methylpyridin-3-yl)methyl)-3-((3-(cyanomethyl)benzyl)amino)-4-oxo-4,6,7,8-tetrahydropyrrolo[1,2-a]pyrimidine-6-carboxamide] | < 500 nM | 500 to 2500 nM |  |

Continued, values first:

| Ki (MASP-2 (CCP1-CCP2-SP)) | Ki (human a-thrombin) | IC50 [1] | Compound |
| --- | --- | --- | --- |
| < 500 nM | 2500 to 10000 nM | < 500 nM | Cc1cc(F)ccc1CNc1cnc2n(c1=O)[C@H](C(=O)NCc1ccc(N)nc1C)CC2 [Compound 62] |
| < 500 nM | 10000 to 25000 nM | < 500 nM | Cc1cc(C)cc(CNc2cnc3n(c2=O)[C@H](C(=O)N[C@H](C)c2ccc(N)nc2C)CC3)c1 [Compound 64, (S)-N-((R)-1-(6-amino-2-methylpyridin-3-yl)ethyl)-3-((3,5-dimethylbenzyl)amino)-4-oxo-4,6,7,8-tetrahydropyrrolo[1,2-a]pyrimidine-6-carboxamide] |
| < 500 nM | > 25000 nM | < 500 nM | Cc1cc(F)cc(CNc2cnc3n(c2=O)[C@H](C(=O)N[C@H](C)c2ccc(N)nc2)CC3)c1 [Compound 25, (S)—N—((R)-1-(6-aminopyridin-3-yl)ethyl)-3-((3-fluoro-5-methylbenzyl)amino)-4-oxo-4,6,7,8-tetrahydropyrrolo[1,2-a]pyrimidine-6-carboxamide, DI-trifluoroacetate] |

From patent US20240228499A1, “MASP-2 INHIBITORS AND METHODS OF USE” (Omeros Corporation, priority 2022, published 2024)
